Data from patent publication US9656971B2, “COMT inhibitors” (Hoffmann-La Roche Inc., priority 2012, dated 2017).
Counter-ions that a name gives are not always drawn. Like-named read-outs stand apart in the source and are kept apart here.

Molecular target: T1, Rec. human COMT (Homo sapiens, UniProt P21964)
T1 sequence (P21964 1-271): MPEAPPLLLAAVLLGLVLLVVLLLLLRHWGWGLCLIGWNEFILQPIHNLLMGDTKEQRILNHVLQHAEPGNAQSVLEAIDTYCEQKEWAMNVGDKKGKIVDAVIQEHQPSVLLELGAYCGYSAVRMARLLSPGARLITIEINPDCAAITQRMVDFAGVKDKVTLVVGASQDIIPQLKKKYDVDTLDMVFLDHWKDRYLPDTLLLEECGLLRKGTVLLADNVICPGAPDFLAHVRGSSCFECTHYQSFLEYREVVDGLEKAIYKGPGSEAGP
Assay: COMT-Fluorescence Assay
Type: biochemical
Conditions: rec. human COMT 25 nM, 4-Nitrocatechol-Alexa488 200 nM, SAM 500 nM
Protocol: This intramolecular interaction is disturbed if the 4-Nitrocatechol is methylated. […] This increase of fluorescence intensity can be followed in a kinetic measurement. The slope in the linear range of the kinetic is calculated. An inhibitor compound decreases the slope.
Signal [rfu/min]=(rfu(end-point)−rfu(startpoint))/incubation_time_#2

[1] = COMT-fluorescence assay, read-out: IC50

| SMILES | IC50 [1] | IC50 (IC50, COMT-fluorescence assay) |
| --- | --- | --- |
| CCOc1ccccc1-c1cc(O)c2nc[nH]c(=O)c2c1 [Example 225, 6-(2-Ethoxyphenyl)-8-hydroxyquinazolin-4(3H)-one] | 60 nM | – |
| CC(C)N(C(=O)c1ccccc1-c1cc(O)c2nc[nH]c(=O)c2c1)C(C)C [Example 226, 2-(8-Hydroxy-4-oxo-3,4-dihydroquinazolin-6-yl)-N,N-diisopropylbenzamide] | 1030 nM | – |
| O=c1[nH]cnc2c(O)cc(-c3ccccc3OCc3ccccc3)cc12 [Example 227, 6-(2-(Benzyloxy)phenyl)-8-hydroxyquinazolin-4(3H)-one] | 50 nM | – |
| CCCCOc1ccccc1-c1cc(O)c2nc[nH]c(=O)c2c1 [Example 228, 6-(2-Butoxyphenyl)-8-hydroxyquinazolin-4(3H)-one] | 50 nM | – |
| CN(C)Cc1cccc(-c2cc(O)c3nc[nH]c(=O)c3c2)c1 [Example 229, 6-(3-Dimethylaminomethyl-phenyl)-8-hydroxy-3H-quinazolin-4-one] | 54 nM | – |
| CN1CCN(C(=O)c2cc(-c3cc(O)c4nc[nH]c(=O)c4c3)n(C)n2)CC1 [Example 230, 8-Hydroxy-6-(1-methyl-3-(4-methylpiperazine-1-carbonyl)-1H-pyrazol-5-yl)quinazolin-4(3H)-one formate] | 20 nM | – |
| COCc1cc(C(=O)N2CCN(C)CC2)ccc1-c1cc(O)c2nc[nH]c(=O)c2c1 [Example 231, 8-Hydroxy-6-[2-methoxymethyl-4-(4-methyl-piperazine-1-carbonyl)-phenyl]-3H-quinazolin-4-one; compound with formic acid] | 10 nM | – |
| CNCCc1ccccc1-c1cc(O)c2nc[nH]c(=O)c2c1 [Example 232, 8-Hydroxy-6-(2-(2-(methylamino)ethyl)phenyl)quinazolin-4(3H)-one] | – | 310 nM |
| COCc1ccc(C(=O)N2CCN(C)CC2)cc1-c1cc(O)c2nc[nH]c(=O)c2c1 [Example 233, 8-Hydroxy-6-[2-methoxymethyl-5-(4-methyl-piperazine-1-carbonyl)-phenyl]-3H-quinazolin-4-one; compound with formic acid] | 1170 nM | – |
| CN(C)CCc1ccccc1-c1cc(O)c2nc[nH]c(=O)c2c1 [Example 234, 6-(2-(2-(Dimethylamino)ethyl)phenyl)-8-hydroxyquinazolin-4(3H)-one] | 980 nM | – |
| COCc1c(C(=O)N2CCN(C)CC2)cccc1-c1cc(O)c2nc[nH]c(=O)c2c1 [Example 235, 8-Hydroxy-6-[2-methoxymethyl-3-(4-methyl-piperazine-1-carbonyl)-phenyl]-3H-quinazolin-4-one] | 30 nM | – |
| O=c1[nH]cnc2c(O)cc(-c3ccccc3COCCN3CCOCC3)cc12 [Example 236, 8-Hydroxy-6-[2-(2-morpholin-4-yl-ethoxymethyl)-phenyl]-3H-quinazolin-4-one] | 20 nM | – |
| O=c1[nH]cnc2c(O)cc(-c3ccccc3COCCN3CCCC3)cc12 [Example 238, 8-Hydroxy-6-(2-((2-(pyrrolidin-1-yl)ethoxy)methyl)phenyl)quinazolin-4(3H)-one] | 30 nM | – |
| O=c1[nH]cnc2c(O)cc(-c3ccccc3COCCN3CCCC3)cc12 [Example 239, 8-Hydroxy-6-[2-(2-pyrrolidin-1-yl-ethoxymethyl)-phenyl]-3H-quinazolin-4-one; compound with trifluoro-acetic acid] | 50 nM | – |
| CN1CCN(CCOCc2ccccc2-c2cc(O)c3nc[nH]c(=O)c3c2)CC1 [Example 240, 8-Hydroxy-6-(2-((2-(4-methylpiperazin-1-yl)ethoxy)methyl)phenyl)quinazolin-4(3H)-one] | 30 nM | – |
| CN(C)CCOCc1ccccc1-c1cc(O)c2nc[nH]c(=O)c2c1 [Example 241, 6-(2-((2-(Dimethylamino)ethoxy)methyl)phenyl)-8-hydroxyquinazolin-4(3H)-one] | 30 nM | – |
| O=c1[nH]cnc2c(O)cc(-c3ccccc3CCCN3CCCC3)cc12 [Example 242, 8-Hydroxy-6-(2-(3-(pyrrolidin-1-yl)propyl)phenyl)quinazolin-4(3H)-one] | 220 nM | – |
